Patent US20250197416A1, “PARTHENOLIDE DERIVATIVES AND USE THEREOF” (University of Rochester, priority 2022, published 2025)

Legend:
[1] = compared with parthenolide; cited from earlier work
[2] = test system: colon cancer cells (HCT-116); assay: MTT cell viability assay, HCT-116; type: cell-based, human
Procedure: (§1) The anticancer activity of the compounds was determined using a MTT (3-[4,5-dimethylthiazol-2-yl]-2,5 diphenyl tetrazolium bromide) assay, which measures cell viability upon incubation of the cells with the compounds. […] Other notable structure-activity insights include the large impact on the linkage utilized for macrocyclization of 14-hydroxy-PTL-derived AB08 and AB24 on the cancer cell specificity of these molecules.
(§2) Experimental Procedures. All cancer cell lines were maintained in a 37° C. humidified incubator with 5% C02. A549, MDA-MB-231, PC-3, SK-N-MC, HeLa, SJSA-1, HCT-116, and SK-MEL-2 cells were cultured in DMEM medium (Gibco) supplemented with 10% FBS (Gibco) and 100 I.U./ml penicillin-streptomycin (Sigma). Adherent cells were dissociated using Accutase (Millipore) or trypsin-EDTA 0.25% (Gibco). Adherent cells were seeded in a 96-well plate at a density of 1000-20,000 cells per well in 180 μl complete DMEM media. Suspension cells were seeded in conical 96-well plates (Nunc) at a density of 30,000 cells per well in 90 ul of complete α-MEM media devoid of phenol red indicator. The plates were incubated in a humidified incubator for 16 hours prior to treatment. […] The resulting OD was measured at 550 nm using a multi-well plate reader (Tecan). […] The resulting absorbance was measured at 570 nm and 600 nm using a multi-well plate reader (Tecan).

[3] = test system: human cancer cells: PC3, SK-N-MC, MDA-MB-231, A549, HeLa, SK-MEL-2, SJSA-1, HCT-116; assay: MTT cell viability assay, panel of cancer cell lines; type: cell-based; conditions: 24 hours; for anticancer activity profile (cytotoxicity spectrum / cancer-type specificity): reduction of cell viability at 10 μM and 20 μM; for anticancer activity (reduction of cancer cell viability): 10 μM and 20 μM
Procedure: as §1
Experimental Procedures. All cancer cell lines were maintained in a 37° C. humidified incubator with 5% C02. A549, MDA-MB-231, PC-3, SK-N-MC, HeLa, SJSA-1, HCT-116, and SK-MEL-2 cells were cultured in DMEM medium (Gibco) supplemented with 10% FBS (Gibco) and 100 I.U./ml penicillin-streptomycin (Sigma). Adherent cells were dissociated using Accutase (Millipore) or trypsin-EDTA 0.25% (Gibco). Adherent cells were seeded in a 96-well plate at a density of 1000-20,000 cells per well in 180 μl complete DMEM media. Suspension cells were seeded in conical 96-well plates (Nunc) at a density of 30,000 cells per well in 90 ul of complete α-MEM media devoid of phenol red indicator. The plates were incubated in a humidified incubator for 16 hours prior to treatment. PTL analogs were prepared as concentrated stocks (2 mM) in DMSO and stored at −30° C. Prior to testing, the analogs were diluted into complete cell culture medium and the media was supplemented with sterile DMSO (10% of final volume). For the initial cytotoxicity screening, the compounds were added to the cells in 20 μl aliquots to give a final concentration of 20 μM and 10 μM parthenologs and 1% DMSO (n=3). Following a 24-hour incubation, the culture media from the adherent cell plates (e.g., HeLa, A549) was aspirated and replaced with 100 pd of 1 mg/mL Thiazolyl Blue Tetrazolium Bromide (MTT, Fisher) in complete culture medium devoid of phenol red. After incubation at 37° C. for 1 hour, the plates were centrifuged (4000 rpm, 5 minutes), the media was removed and 100 ul of DMSO was added to solubilize the formazan product. The resulting OD was measured at 550 nm using a multi-well plate reader (Tecan). Suspension cells were treated for 24 hours in the presence or in the absence of the compounds at 10 μM and 20 μM, followed by measurement of cell viability using alamarBlue stain. After incubation, […] of AlamarBlue (Invitrogen) was added to each well and incubated until color change was observed, typically approximately 20-24 hours, in the control wells (1% DMSO in media, no compound). The resulting absorbance was measured at 570 nm and 600 nm using a multi-well plate reader (Tecan).

[4] = test system: lung adenocarcinoma (A549); assay: MTT cell viability assay, A549; type: cell-based, human; conditions: relative to PTL
Procedure: as §1, §2

[5] = test system: breast cancer cells (MDA-MB-231); assay: MTT cell viability assay, MDA-MB-231; type: cell-based, human; conditions: relative to PTL
Procedure: as §1, §2

[6] = test system: cervical (HeLa) cancer cells; assay: MTT cell viability assay, HeLa; type: cell-based, human; conditions: 10 μM and 20 μM, 24 hours
Procedure: as §1, §2

leukemia cell line HL-60 = assay: alamarBlue cell viability assay, HL-60; type: cell-based; conditions: 10 μM and 20 μM, 24 hours
Procedure: The antileukemic activity of the PTL analogs was evaluated using the leukemia cell line HL-60 and the leukemia stem cell line M9-ENL1. To measure the compound activity against hematologic cells, cells were treated for 24 hours in the presence or in the absence of the PTL analog at 10 μM and 20 μM, followed by measurement of cell viability using alamarBlue stain (FIG. 9).
as §2, with “treatment. PTL analogs were prepared as concentrated stocks (2 mM) in DMSO and stored at −30° C.” for “treatment.”

Row | SMILES | anticancer activity profile (cytotoxicity spectrum / cancer-type specificity) [3] | anticancer activity (reduction of cancer cell viability) [3] | other results
1 | CC1=CCCC2(C)OC2C2OC(=O)C(C)C2CC1 (stereo not shown) | – | – | anticancer and anti-inflammatory activity after reduction of the α-methylene-γ-lactone group [1]: complete loss of activity
2 | C=C1CC[C@H]2C(=C)C(=O)O[C@@H]2[C@H]2O[C@]2(C)CCC=CCCC(=O)OC1 [AB07] | – | – | increased potency compared to PTL, based on half-maximal lethal dose (LD50) ([2]; HCT-116, relative to PTL): > 3 fold
3 | C=C(C)[C@@H]1C[C@H]2C(=C)C(=O)O[C@@H]2[C@H]2O[C@]2(C)CCC=CCCC(=O)O1 [AB10] | intermediate | – | –
4 | C=C1C(=O)O[C@@H]2[C@H]3O[C@]3(C)CC[C@@H]3C(=CCn4c(=O)n(-c5ccccc5)c(=O)n43)CC[C@@H]12 [AB16] | intermediate | potent anticancer activity against at least six cell lines | –
5 | C=C1C(=O)O[C@@H]2[C@H]3O[C@]3(C)CCC3C(=CCC(C#N)(C#N)C3(C#N)C#N)CC[C@@H]12 (stereo partly shown) [AB17] | – | lower activity against the same cell lines | –
6 | C=C1C(=O)O[C@@H]2[C@H]3O[C@]3(C)CC[C@@H]3C(=CC[C@@H]4C(=O)OC(=O)[C@@H]43)CC[C@@H]12 [AB18] | – | lower activity against the same cell lines | –
7 | C=C1C(=O)O[C@@H]2[C@H]3O[C@]3(C)CCC3C(=CCC4=C3C(O)C=CC4O)CC[C@@H]12 (stereo partly shown) [AB19] | intermediate | potent anticancer activity against at least six cell lines | –
8 | C=C/C1=C\CC[C@@]2(C)O[C@@H]2[C@H]2OC(=O)C(=C)[C@@H]2CC1 [AB20] | high cancer-type specificity | – | –
9 | C=C1CC[C@H]2C(=C)C(=O)O[C@@H]2[C@@H]2O[C@]2(C)CCC/C=C\Cc2ccccc2C(=O)OC1 [AB24] | broad-spectrum cytotoxicity | – | –
10 | C=C(C)[C@@H]1C[C@H]2C(=C)C(=O)O[C@@H]2[C@@H]2O[C@]2(C)CCCC=CCc2ccccc2C(=O)O1 [AB25] | broad-spectrum cytotoxicity | – | enhanced potency compared to PTL, based on half-maximal lethal dose (LD50) [4]: 210 fold; enhanced potency compared to PTL, based on half-maximal lethal dose (LD50) [5]: 210 fold
11 | C=CCC[C@@]1(C)O[C@@H]1[C@H]1OC(=O)C(=C)[C@@H]1CCC(=C)C=O [AB26] | high cancer-type specificity | – | –
12 | C=C1C(=O)O[C@@H]2[C@H]3O[C@]3(C)CC/C=C3\COC(=O)O[C@H]3C[C@@H]12 [JMB02] | – | less potent anticancer activity | –
13 | C=C1C(=O)O[C@@H]2[C@H]3O[C@]3(C)CC/C=C3\COS(=O)(=O)O[C@H]3C[C@@H]12 [JMB03] | high cancer-type specificity | – | selective activity against colon (HCT-116) cancer cells ([2]; 10 μM and 20 μM, 24 hours): selective activity; selective activity against cervical (HeLa) cancer cells [6]: selective activity
14 | C=C1C(=O)O[C@@H]2[C@H]3O[C@]3(C)CCC(Sc3ccccc3)C(C=O)C(=O)C[C@@H]12 (stereo partly shown) [JMB06] | – | – | anticancer activity against HL-60 (leukemia cell line HL-60): relatively selective anticancer activity
15 | C=C1C(=O)O[C@@H]2[C@H]3O[C@]3(C)CCC(C3C=CC(=O)O3)C(C=O)C(=O)C[C@@H]12 (stereo partly shown) [JMB07] | – | – | anticancer activity against HL-60 (leukemia cell line HL-60): relatively selective anticancer activity
16 | C=C1C(=O)O[C@@H]2[C@H]3O[C@]3(C)CC/C=C(\C)C(=O)C[C@@H]12 [JMB08] | intermediate | – | –
